The test addresses T1, CSNK1G2 (CK1 gamma 2) (Homo sapiens, UniProt P78368).
T1 construct: purchased Thermo Fisher Scientific (Life Technologies) SelectScreen
Briefly: SelectScreen Z'LYTE. It is filed as biochemical. The method in brief:
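Percent values come from Thermo SelectScreen profiling of NU5455, combining activity and binding assays. CSF1R was run in Z'LYTE format at Km app ATP, and CAMK1 in Adapta format with ATP listed at 10.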

We go through one compound from article PMC6934184, “Selective DNA-PKcs inhibition extends the therapeutic index of localized radiotherapy and chemotherapy” (The Journal of Clinical Investigation, 2019).

Each structure is given as a SMILES string.

T1 sequence (P78368 whole entry): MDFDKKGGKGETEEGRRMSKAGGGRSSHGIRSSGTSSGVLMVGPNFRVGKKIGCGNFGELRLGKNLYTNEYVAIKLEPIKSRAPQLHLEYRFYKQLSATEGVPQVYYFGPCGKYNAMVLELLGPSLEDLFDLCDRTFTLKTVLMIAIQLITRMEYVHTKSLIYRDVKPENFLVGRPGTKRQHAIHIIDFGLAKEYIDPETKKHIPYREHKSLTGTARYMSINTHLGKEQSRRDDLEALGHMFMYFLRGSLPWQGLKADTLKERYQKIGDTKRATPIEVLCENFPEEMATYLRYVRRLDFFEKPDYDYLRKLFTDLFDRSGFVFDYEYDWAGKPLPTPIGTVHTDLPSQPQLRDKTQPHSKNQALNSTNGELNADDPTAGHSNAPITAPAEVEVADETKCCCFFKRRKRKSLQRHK

With `CN(C(=O)CN1CCOCC1)c1ccc2sc3c(-c4cccc5c(=O)cc(N6CC7CCC(C6)O7)oc45)cccc3c2c1` [NU5455], the inhibition (usually the relative decrease from the control value, in per cent) at 1 µM was -9.3%.
